Test results taken from patent US20230219898A1, “COMPOUNDS AND METHODS FOR BLOCKING APOPTOSIS AND INDUCING AUTOPHAGY” (President and Fellows of Harvard College, priority 2020, published 2023).

What was measured:
His-TRADD-N = target: T1, His-TRADD-N (Homo sapiens, UniProt Q15628); test: Thermal shift assay with His-TRADD-N; format: binding
T1 construct: expression constructs encoding Flag-TRADD-N(1-179) and HA-TRADD-C(180-312); made in house; host or cells: E. coli BL21 (DE3), pET-28a
Method: Recombinant WT and mutant His-TRADD-N(aal-179) protein fragment was expressed in BL21 (DE3) E. coli after induction with 0.5 mM IPTG overnight at 16C. ^15N-labeled TRADD-N domain protein was purified from E. co/i grown at 16C in minimal medium. Bacteria were harvested and disrupted by a high-pressure homogenizer and purified by Ni^2+ affinity resin (GE Healthcare). All proteins were further purified by size exclusion chromatograph on a Superdex 75 column (GE Healthcare) in a buffer containing 20 mM imidazole (pH6.6), 200 mM NaCl, 20 mM DTT and 0.05% NaN3. All NMR samples were in the same buffer at concentrations between 0.2-0.4 mM with 90% H2O/10% D2O. […]
To determine stability, purified proteins were made to a final concentration of 1 μg/l. […] The reaction was run from 25C, ramping up in increments of 0.05° C./s to a final temperature of 95C with fluorescence detection throughout the experiment to generate a dataset. Melting temperature of the protein (Tm) was determined by performing non-linear fitting of the dataset to a Boltzmann Sigmoidal curve in GraphPad Prism with the following equation: Y=Bottom+(Top-Bottom)/[1+exp(Tm-X/Slope)], where Y=fluorescence emission in arbitrary units; X=temperature; Bottom=baseline fluorescence at low temperature; Top=maximal fluorescence at top of the dataset; Slope=describes the steepness of the curve, with larger values denoting shallower curves.

TRADD-N and TRAF2-C = target: T2, TRADD-N and TRAF2-C (Homo sapiens, UniProt Q15628); test: Cell-free FRET assay TRADD-N / TRAF2-C; format: biochemical; details: incubated 1 h
T2 construct: expression constructs encoding Flag-TRADD-N(1-179) and HA-TRADD-C(180-312); expressed in transfected cells; host or cells: HEK293T
Method: When FRET occurs, the acceptor mVenus-TRADDN-Flag (mV-TRADDN) emission will increase and the donor emission will decrease. Apt-1 was added to the system with indicated concentration and incubated for 1 h, then subjected to FRET assay.
mVenus- and Flag-tagged TRADD-N(mVenus-TRADDN-Flag) and mCerulean- and Flag-tagged TRAF2C (Flag-TRAF2C-mCerulean) was expressed in HEK293T cells for 48 h. Then cells were lysed in NP-40 buffer followed by immunoprecipitation using anti-Flag affinity gel. The proteins were eluted by 5 mg/ml 3×Flag peptide and exchanged into assay buffer (120 mM NaCl, 20 mM NaH2PO4/Na2HPO4, pH 7.4) by dialysis for FRET assay. The proteins were added into Coming black 96-well microtiter plates in triplicates at a final concentration of 1 μM. Apt-1 was incubated with the proteins for 1 h before measurement. Measurements were performed on a fluorescent plate reader (Victor3, 1420 Multilabel counter, Perkin Elmer). The following filter set was used: mCerulean filter set (excitation: 430/15 nm, emission: 460/20 nm); mVenus filter set (excitation: 485/15, emission 535/15); FRET filter set (430/15 nm, emission 450-600 nm).

[1] = tested on: TRADD-N mutants (Y16A, F18A, I72A, R119A, G121A); test: Thermal shift assay with His-TRADD-N mutants; format: binding, human
Method: To determine stability, purified proteins were made to a final concentration of […]. SYPRO Orange dye was added to the protein to make a final concentration of 2×. Compounds were added in the mix with a final concentration of 250 μM or as indicated and incubated at 4C for 1 h. The experiments were performed in 384-well plates specific for real-time PCR instrument with a total volume of 20 μl/well. The assay plate was covered with a sheet of optically clear adhesive to seal each well. The assay plate was centrifuged at 800×g for 2 min at 25C to collect solutions in the bottom of the well and remove bubbles. The assay plate was placed into the Applied Biosystems QuantStudio 6 Real-Time PCR System. The reaction was run from 25C, ramping up in increments of 0.05° C./s to a final temperature of 95C with fluorescence detection throughout the experiment to generate a dataset. Melting temperature of the protein (Tm) was determined by performing non-linear fitting of the dataset to a Boltzmann Sigmoidal curve in GraphPad Prism with the following equation: Y=Bottom+(Top-Bottom)/[1+exp(Tm-X/Slope)], where Y=fluorescence emission in arbitrary units; X=temperature; Bottom=baseline fluorescence at low temperature; Top=maximal fluorescence at top of the dataset; Slope=describes the steepness of the curve, with larger values denoting shallower curves.

RIPK1 in complex I = test: RIPK1 activation in complex I of TNFα-stimulated MEFs; format: cell-based, mouse; details: 10 μM
Method: Cells were seeded in 15 cm dishes and treated as indicated with Flag-TNFα ([…]). To terminate treatment, media was removed and plates were washed with 50 mL of ice cold PBS. Plates were frozen at −80C until all time points were acquired. Plates were thawed on ice and cells were lysed in 0.5% NP-40 lysis buffer (50 mM Tris-HCl pH 7.5, 150 mM NaCl and 0.5% NP-40) supplemented with protease inhibitors and N-Ethylmaleimide (2.5 mg/ml). Cell lysates were rotated at 4° C. for 30 min then clarified at 4° C. at 14,000 rpm for 30 min. Proteins were immunoprecipitated from cleared protein lysates with 20 μl of anti-Flag M2 beads (Sigma) with rotation overnight at 4° C. 4×washes in 0.5% NP-40 buffer with N-Ethylmaleimide were performed, and samples eluted by boiling in 50 μl 1×SDS loading buffer. For complex-II purification cells were seeded in 10 cm dishes and treated as indicated using media containing TNFα (10 ng/ml) and zVAD (20 μM). Cells were lysed on ice in 0.5% NP-40 lysis buffer. Cell lysates were rotated at 4C for 30 min then clarified at 4C at 14,000 rpm for 10 min. 20 μl of protein G Sepharose (Sigma), after pre-blocking for 1 h with lysis buffer containing 1% BSA, were incubated with FADD antibody ([…]) and the mixture was incubated in rotation with cleared protein lysates 4 h at 4C. […]

T2 sequence (Q15628 1-179): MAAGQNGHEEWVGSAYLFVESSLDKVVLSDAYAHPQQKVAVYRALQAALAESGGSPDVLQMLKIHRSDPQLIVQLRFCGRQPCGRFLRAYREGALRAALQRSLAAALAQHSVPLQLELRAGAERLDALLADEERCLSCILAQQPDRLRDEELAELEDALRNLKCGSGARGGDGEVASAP
T1 sequence (Q15628 1-179): as above

| Structure (SMILES) | increase of Tm of His-TRADD-N (His-TRADD-N) [°C] | binding of TRADD-N to TRAF2-C (FRET) (TRADD-N and TRAF2-C) | binding with recombinant TRADD-N mutants [1] | activation of RIPK1 in complex I induced by TNFα (RIPK1 in complex I) |
| --- | --- | --- | --- | --- |
| CN1CCN=C1SC(C(=O)NC1CCCCCC1)c1ccccc1 (stereo not shown) [Compound 30] | 3.7 | dose-dependently reduced | reduced relative to WT | – |
| O=C(CSC1=NCCN1)NC1CCCCCC1 [ICCB-19] | – | – | – | reduced the rapid activation of RIPK1 |
